Assay results reported in BindingDB's records for doi:10.1016/s0960-894x(01)00654-0 (Merck Research Laboratories, 2001).
pIC50: −log10 of the molar value.

Assays:
[1] = molecular target: T1, C-C chemokine receptor type 5 (Homo sapiens, UniProt P51681); experiment: ChEBML_39507
Description: (§1) Binding affinity against C-C chemokine receptor type 5 stably expressed in Chinese hamster ovary (CHO) cells using [125I]-MIP-1 alpha as the radioligand

[2] = molecular target: T1, C-C chemokine receptor type 5; experiment: as §1

T1 sequence (P51681 whole entry): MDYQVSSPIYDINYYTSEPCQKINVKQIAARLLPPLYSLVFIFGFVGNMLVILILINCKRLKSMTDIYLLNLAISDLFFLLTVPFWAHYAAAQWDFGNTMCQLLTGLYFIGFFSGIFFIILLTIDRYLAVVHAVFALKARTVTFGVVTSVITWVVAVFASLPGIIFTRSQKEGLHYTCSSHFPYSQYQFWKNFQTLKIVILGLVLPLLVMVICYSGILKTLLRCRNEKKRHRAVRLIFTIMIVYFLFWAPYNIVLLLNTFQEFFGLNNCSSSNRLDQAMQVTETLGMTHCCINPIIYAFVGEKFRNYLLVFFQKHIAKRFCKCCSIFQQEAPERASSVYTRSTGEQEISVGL

pIC50 [1]: 7.60
pIC50 [2]: 7.60
Compound: O=c1[nH]c(Cc2c[nH]c3ccccc23)c(O)n1CC(CCN1CCC(c2ccccc2)CC1)c1cccc(Cl)c1 [(R)-3-[2-(3-Chloro-phenyl)-4-(4-phenyl-piperidin-1-yl)-butyl]-5-(1H-indol-3-ylmethyl)-imidazolidine-2,4-dione]
